A melting point compilation (Tetko et al.; mined from patent text by program, amines drawn as free bases though some values may be those of a salt)

First: CC(=O)Nc1ccc(C(C)=C(Cl)Cl)cc1[N+](=O)[O-]
Second: CC(=O)Nc1cc2c(cc1[N+](=O)[O-])OC(C)(C)[C@@H](O)[C@@H]2N1CCCC1=O (relative stereo)
The melting point of the first is lower: 139 to 141 °C for the first, 240 to 241 °C for the second.

Compared with `Cc1ccc(-c2cc(C(F)(F)F)nn2-c2ccc(S(=O)(=O)NO)cc2)cc1`, `Cc1cc(-c2ccc(C(F)(F)F)cc2)cc(-c2cccc(-c3cccc(N)c3)n2)n1` is lower in melting point: 203 °C for the first, 167 °C for the second.

Compared with `Cc1nn2ccccc2c1C(=O)C1=CNCCC1`, `CCOC(=O)c1nn(-c2ccccc2)c2c1COc1ccccc1-2` is lower in melting point: 207 to 208 °C for the first, 154 to 156 °C for the second.

Compared with `O=C1Cc2c([nH]c3ccc(Br)cc23)-c2ccccc2N1`, `O=C1COCc2cc(-c3ccccc3)ccc21` is lower in melting point: greater than 300 °C for the first, 127 to 128 °C for the second.

First: CCC(C)(C)N=C(NC#N)Nc1cc(Br)cc(Br)c1
Second: CC(C)(C)NN=C(O)C(=O)c1ccccc1
The melting point of the first is higher: 168 to 170 °C for the first, 138 to 139 °C for the second.

Compared with `COCCOCCOc1ccc(NC(=O)NCc2ccc3c(c2)CN(C2CCC(=O)NC2=O)C3=O)cc1Cl` (stereo not given), `CCC(=O)N(C)Cc1cccc2c1C(=O)N(C1CCC(=O)NC1=O)C2=O` (stereo not given) is higher in melting point: 188 to 190 °C for the first, 206 to 208 °C for the second.

First: CCOc1ccc(Nc2ncc(C(=O)O)c(=O)[nH]2)cc1
Second: CC(=O)Nc1ccc(OC(F)(F)C(F)F)cc1
The melting point of the first is higher: 250 to 252 °C for the first, 121 to 122 °C for the second.

Compared with `CC(=O)Oc1ccc(C(F)(F)C(F)(F)C(F)(F)I)cc1`, `CN1CCC(c2c(O)cc(O)c3c(=O)cc(-c4ccc(C(F)(F)F)cc4)oc23)C1CO` (stereo not given) is higher in melting point: 75 to 81 °C for the first, 238 °C for the second.

First: Cc1cccc(N(C)C(=S)Oc2ccc(Cl)c(C)c2)n1
Second: CCc1nc2c(Br)cccc2cc1C
The melting point of the first is higher: 134 to 136 °C for the first, 54 °C for the second.

First: CCCCc1ccc(NC(=O)NOCc2ccccc2)cc1
Second: CCCCc1ccc(C#Cc2ccc(C=O)cc2)cc1
The melting point of the first is higher: 90.6 to 91.4 °C for the first, 76 to 78 °C for the second.

First: CC(C)(C)OC(=O)N1C2CCC(C2)N1CC(O)C(Cc1ccccc1)NC(=O)OCc1ccccc1 (mixture of isomers)
Second: CN(C)C(=O)NC1(Cc2ccccc2)CCN(Cc2ccccc2)CC1
The melting point of the first is lower: 119 to 126 °C for the first, 131 °C for the second.

First: CC(NC(=O)c1cccnc1)c1ccccc1 (stereo not given)
Second: O=C(NC1c2ccccc2-c2[nH]c(=O)c3nccn3c21)c1ccccc1 (stereo not given)
The melting point of the first is lower: 88 to 89 °C for the first, 300 °C for the second.

First: CCn1cc(C(=O)O)c(=O)c2cc(F)c(OC3CCN(C)CC3)cc21
Second: C=Cc1c(F)c(F)cc2c(=O)c(C(=O)OCC)cn(C3CC3)c12
The melting point of the first is higher: 268 to 271 °C for the first, 178 to 179 °C for the second.

Compared with `O=C=NCCC(F)(F)C(F)(F)C(F)(F)C(F)(F)C(F)(F)C(F)(F)C(F)(F)C(F)(F)C(F)(F)C(F)(F)F`, `O=[N+]([O-])CS(=O)(=O)c1ccccc1C(F)(F)F` is higher in melting point: 70 to 71 °C for the first, 80 °C for the second.

Compared with `COc1ccc(C(=N)N(N)c2c(Cl)cncc2Cl)cc1OC1CCCC1`, `COC(=O)C1CCCc2c(noc2-c2ccc(Cl)cc2)C1` (stereo not given) is lower in melting point: 130 to 131 °C for the first, 94 to 95 °C for the second.

First: CCOC(=O)c1nc(-c2cccc3ccccc23)no1
Second: CCOC(=O)c1cc2c(OCC3CO3)cccc2[nH]1 (stereo not given)
The melting point of the first is lower: 68 to 70 °C for the first, 142 to 144 °C for the second.

Compared with `Cc1cc2c(cc1Cl)N(C(=O)Nc1ccc(C)c(-c3cccnc3)c1)CC2`, `O=C(Nc1ccc(C(=O)N2CCc3cn[nH]c3-c3sccc32)cc1)c1ccc(F)cc1Cl` is higher in melting point: 202 to 203 °C for the first, 258 to 266 °C for the second.

First: CCOC(=O)c1cnn(-c2ccc(Cl)cc2C(F)(F)F)c1N
Second: CCOC(=O)c1ncn(-c2nncs2)c1Cl
The melting point of the first is lower: 114 to 116 °C for the first, 184 to 185 °C for the second.

Compared with `CCc1cccc(CC(=O)O)c1OCCCc1cn(Cc2nc(-c3ccccc3)oc2C)nc1C(C)C`, `Cc1oc(-c2ccco2)nc1COc1ccc(Cc2nc(-c3ccccc3)c(CCC(=O)O)o2)cc1` is lower in melting point: 94 to 95 °C for the first, 74 to 76 °C for the second.

Compared with `CCc1ccc(C#Cc2ccc(C=O)cc2)cc1`, `O=C(C=Cc1ccc(Cl)cc1)C=Cc1ccc(Cl)cc1` is higher in melting point: 117 °C for the first, 187 to 189 °C for the second.

Compared with `CC(=O)c1cc(C)c2c(n1)-c1ccccc1C2=O`, `Cc1cc(C)c2sc(-c3ccccn3)nc(=O)c2c1` is higher in melting point: 170 to 172 °C for the first, 245 to 246 °C for the second.

First: C[C@@H](n1cnc2cc(Sc3ccccc3)ccc2c1=O)[C@](O)(Cn1cncn1)c1ccc(F)cc1F
Second: c1ncn(Cc2ccc3c(c2)-c2[nH]nc(-c4ccsc4)c2C3)n1
The melting point of the first is lower: 84 to 87 °C for the first, 243 to 245 °C for the second.

First: c1cc(-c2cnco2)nc(-c2cnco2)c1
Second: Nc1cccc(Oc2cnc3cc(Cl)ccc3n2)c1
The melting point of the first is higher: 190 to 191 °C for the first, 119 to 120 °C for the second.

Compared with `O=S(=O)(C1=Cc2ccccc2C1)c1ccc(O)cc1`, `Nc1cc(N2CCNCC2)ccc1S(=O)(=O)c1ccc(F)cc1` is lower in melting point: 209 to 210 °C for the first, 144 to 146 °C for the second.

First: COc1cc(C=CC(=O)COc2ccccc2)ccc1O
Second: CC(COc1ccccc1)C1SC(=O)NC1=O (stereo not given)
The melting point of the first is lower: 85 to 87 °C for the first, 106 to 108 °C for the second.

Compared with `CN(C(=O)Cc1ccccc1)c1ccc(OC23CC4CC(CC(C4)C2)C3)cc1`, `O=C(Nc1ccccc1)O[C@@H]1CN=C(c2ccoc2)O[C@H]1c1ccccc1` (racemic) is higher in melting point: 89 to 91 °C for the first, 130 °C for the second.

Compared with `CN(c1cccc2cc(C3=NCC(CO)S3)[nH]c12)S(=O)(=O)c1cccs1` (stereo not given), `CSc1ncc(Cc2cnc3ccccc3c2)c(=O)[nH]1` is higher in melting point: 207 to 208 °C for the first, 220 to 221 °C for the second.

Compared with `N#CC1=CC(CF)(CF)Oc2ccc(Br)cc21`, `CCN(CCF)CCN1C(=O)c2ccccc2C1=O` is lower in melting point: 105 to 107 °C for the first, 57 to 59 °C for the second.

First: COc1ccc(/C=C/c2nc3c(c(=O)n(C)c(=O)n3C)n2C)c(C)c1C
Second: CCOC(=O)/C=C/c1nc(COc2ccc(CCl)cc2OC)c(C)o1
The melting point of the first is higher: greater than 275 °C for the first, 107 to 108 °C for the second.

First: CCOC(=O)c1cn(-c2ccc(F)cc2)c2cc(C#C[Si](C)(C)C)ccc2c1=O
Second: Fc1ccc(-n2cc(OCCN3CCCCC3)c3cc(Cl)ccc32)cc1
The melting point of the first is higher: 247 to 249 °C for the first, 82 to 84 °C for the second.

First: CC1CCN(C(=O)[C@H](CCCCNc2ccccn2)NS(=O)(=O)c2ccc3ccccc3c2)CC1
Second: O=c1c2ccccc2nnn1CCCN1CCC(c2c[nH]c3ccccc23)CC1
The melting point of the first is higher: 127 to 129 °C for the first, 60 °C for the second.

Compared with `Cc1cc(C)c2c(c1C)OC(=O)C2c1ccc(C(C)C)cc1` (stereo not given), `CC(C)NC(=O)N1N=C(c2ccc(N)cc2)c2cc(Cl)ccc2CC1C` (stereo not given) is lower in melting point: 107 to 108 °C for the first, 100 to 102 °C for the second.

First: CC(=O)N1CCN(c2nccc(Oc3ccc(NC(=O)c4cc(F)cc(N5CCCCC5)c4)c4ccccc34)n2)CC1
Second: CC(C)(C)[Si](C)(C)Oc1ccccc1-c1cc(-c2cccc([N+](=O)[O-])c2)c(C#N)c(NC(=O)c2ccsc2)n1
The melting point of the first is lower: 102 to 104 °C for the first, 139 to 142 °C for the second.

First: CN1C(=O)CN=C(c2ccccc2F)c2cc(CCN)ccc21
Second: NC1=NS(=O)N=C1NCCCN(Cc1ccccc1F)c1ccccn1 (stereo not given)
The melting point of the first is lower: 125 °C for the first, 180 to 182 °C for the second.

Compared with `COc1cc(Nc2c(C#N)cnc3cc(C#CCN(C)C)sc23)c(Cl)cc1Cl`, `C#CCOc1cc(-c2ncnc(C)c2C)c(F)cc1Cl` is lower in melting point: 164 to 166 °C for the first, 131 to 133 °C for the second.

First: CCCCNC(=O)N(C)c1cccc(-c2ccc(C=C(OC)C(=O)O)cc2)c1
Second: COCCCNC(=O)c1[nH]c(C)c(-c2nc3ccc(C(=O)c4ccccc4)cc3[nH]2)c1C
The melting point of the first is lower: 146 °C for the first, 256 to 258 °C for the second.

First: NCC(C(=O)O)c1c[nH]c2ccc(F)cc12 (stereo not given)
Second: CCOC(=O)C(N=Nc1ccc(Br)cc1C(=O)c1ccccn1)NC(=O)CCl (stereo not given)
The melting point of the first is higher: 244 to 245 °C for the first, 160 to 162 °C for the second.

First: CCOCn1c(Oc2ccccc2)c(C(C)C)c(=O)[nH]c1=O
Second: Cc1cccc(C(=O)Nc2c[nH]nc2C(=O)NCCOC(C)C)n1
The melting point of the first is lower: 137 to 138 °C for the first, 150 to 151 °C for the second.

Compared with `Cc1c(C#N)c(=O)n(-c2cc(C(=O)OC(C)C)c(Cl)cc2F)c(=O)n1C`, `COC(=O)c1cc(S(C)(=O)=O)c(Nc2ccc(S(F)(F)(F)(F)F)cc2)cc1C` is lower in melting point: 171 to 173 °C for the first, 106 to 109 °C for the second.

First: Oc1cccc2c1CCC2N1CCCCC1 (stereo not given)
Second: NS(=O)(=O)c1ccc(C2=C(c3ccc(F)c(Cl)c3)CCC2)cc1
The melting point of the first is lower: 134 to 136 °C for the first, 150 to 152 °C for the second.

First: COc1nc2nc(S(=O)(=O)Cl)nn2cc1C
Second: COc1ccc(S(=O)(=O)n2ccc3ccnc(Nc4ccc(F)cc4)c32)cc1
The melting point of the first is higher: 154 to 157 °C for the first, 125 to 127 °C for the second.

First: Clc1n[nH]c2cccc(NC3=NCCN3)c12
Second: CC1CC(=O)NN=C1c1ccc(C2=NNC(=O)CC2C)cc1 (stereo not given)
The melting point of the first is lower: 245 to 250 °C for the first, greater than 300 °C for the second.

First: CCc1nc2c(N)nc3cc(OCc4ccc(C(F)(F)F)o4)ccc3c2s1
Second: CCCCc1nc(Cl)c(COC)n1Cc1ccc(-c2ccccc2Cc2nnn[nH]2)cc1
The melting point of the first is higher: 152 to 154 °C for the first, 149 to 152 °C for the second.

First: O=C1N(Cc2ccccn2)c2ccccc2C12COc1cc3c(cc12)OCCO3 (stereo not given)
Second: CC(C)(C)c1cc(-c2csc3nc(-c4ccccc4)c(-c4ccccc4)n23)cc(C(C)(C)C)c1O
The melting point of the first is lower: 144 to 146 °C for the first, 237 to 238 °C for the second.

First: COC(=O)c1cncc(N(C)C(=O)C(C)CSC(C)=O)c1 (stereo not given)
Second: CN(C)C=NS(=O)(=O)c1cc(C(C)(C)C)cc(C=O)c1O
The melting point of the first is lower: 123 to 125 °C for the first, 182 to 183 °C for the second.

Compared with `CCNC(=N)NC(=O)Cc1ccc(Cl)cc1`, `CC(C)(Oc1ccc(C(=O)c2ccc(Cl)cc2)cc1)C(=O)Oc1ccc(I)cc1` is higher in melting point: 146 to 147 °C for the first, 149 to 150 °C for the second.

Compared with `CC(C)CCCC(C)C1CCC2C3CC=C4CC(N=[N+]=[N-])CCC4(C)C3CCC12C` (stereo not given), `CC1(C)CN(C(=O)c2cc3c(C(=O)OC(C)(C)C)ncn3c3ccc(Cl)cc23)CC(C)(C)N1` is higher in melting point: 84 to 86 °C for the first, 241 to 242 °C for the second.

First: CCSc1cnc(OCCOc2ncnc(NS(=O)(=O)c3ccc(C(C)(C)C)cc3)c2-c2ccc(C)cc2)nc1
Second: COc1ccc2[nH]c3c(C(=O)Nc4ccc(CCCCN(C)CCc5ccc(OC)c(OC)c5)cc4)cccc3c(=O)c2c1
The melting point of the first is higher: 177 to 178 °C for the first, 155 °C for the second.

Compared with `CN1C(=O)N(C)C(O)C1O` (stereo not given), `COc1ccc(-c2c(Cl)c(CN3C(=O)CCC3=O)nc3sc4c(c23)CCN(C(C)=O)C4)cc1OC` is higher in melting point: 140 °C for the first, 208 to 210 °C for the second.

First: N#Cc1[nH]c(Br)c(C#N)c1Br
Second: C=CC(=O)OCCCCCCCCOc1ccc(C(=O)O)cc1
The melting point of the first is higher: 227 to 232 °C for the first, 157 to 158 °C for the second.
